The record followed here is patent US9982005B2, “Macrolides and methods of their preparation and use” (President and Fellows of Harvard College, priority 2013, dated 2018).

What all share (format): cell-based
In one assay the test system is EC882 E. coli imp. In words: broth dilution MIC, E. coli EC882. The source says: (§1) We have collected MIC data for a total of 50 novel macrolides that this platform has produced against over 21 unique strains of B. subtilis, E. coli, S. aureus, S. pneumoniae, and H. influenzae, including several multidrug-resistant strains, with a special focus on macrolide resistant mechanisms (vide supra). Azithromycin was included as a control macrolide. CLSI standard procedures for broth dilution MIC determination were used. […] These genotypes can be constitutive or inducible. The finding that C4-epi (unnatural) isomers of the “azaketolide” macrolide class have enhanced activities relative to C4 natural isomers is very exciting.
A general note: Broth dilution looks for growth in wells or tubes with falling amounts of substance.

In a further assay the test system is BS1725 B. subtilis ermC. Nature of the assay: broth dilution MIC, B. subtilis BS1725.
From the text: as §1

Another assay relates to EC107 E. coli ATCC25922. Nature of the assay: broth dilution MIC, E. coli EC107.
From the text: as §1

The subject of assay [1] is BS1723 B. subtilis BS168 WT wild type. Nature of the assay: broth dilution MIC, B. subtilis BS1723. Particulars: BS1723 B. subtilis BS168 WT wild type.
From the text: as §1

The subject of assay [2] is SA101 S. aureus ATCC29213. Nature of the assay: broth dilution MIC, S. aureus SA101.
From the text: as §1

The subject of a further assay is EC878 E. coli tolC. Nature of the assay: broth dilution MIC, E. coli EC878.
From the text: as §1

The next assay deals with H. influenzae strains. Nature of the assay: MIC against H. influenzae strains (Table M8). Particulars: Haemophilus influenzae. In a few lines:
(§2)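 Broth dilution (CLSI standard) gave the minimum inhibitory concentrations. Resistance genotypes in the panel can be constitutive or inducible.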

A further assay relates to S. aureus strains. Nature of the assay: MIC against S. aureus strains (Table M7). To be noted: Staphylococcus aureus. An outline of the steps: as §2
The test system of a further assay is K. pneumoniae strains. Nature of the assay: MIC against K. pneumoniae strains (Table M8). Particulars: Klebsiella pneumoniae, K. pneumoniae 10031.
In a further assay the test system is A. baumannii strains. In words: MIC against A. baumannii strains (Table M8). Particulars: Acinetobacter baumannii, BAA747, A. baumannii BAA747-1.
The subject of the next assay is E. faecalis strains. Nature of the assay: MIC against E. faecalis strains (Table M8). Particulars: Enterococcus faecalis, E. faecalis 29212.
The next assay concerns E. coli strains. In words: MIC against E. coli strains (Table M7). To be noted: Escherichia coli, ATCC25922, E. coli ATCC 25922. In a few lines:
as §2

A further assay concerns S. pneumoniae strains. In words: MIC against S. pneumoniae strains (Tables M7, M8). To be noted: Streptococcus pneumoniae. From the text: CLSI standard procedures for broth dilution MIC determination were used. […] These genotypes can be constitutive or inducible.
[3] abbreviates: Bacillus subtilis, BS1725 B. subtilis ermC (+ery).
Where [4] appears, read: Bacillus subtilis, BS1725 B. subtilis ermC (−ery).
The mark [5] stands for this setting: Escherichia coli, read-out: MIC.
Setting [6] is: Bacillus subtilis, read-out: MIC.
Where [7] appears, read: Staphylococcus aureus, ATCC29213, SA101 S. aureus ATCC29213, read-out: MIC.
Where [8] appears, read: H. influenzae 49247, read-out: MIC H. influenzae (49247).
Where [9] appears, read: H. influenzae 49766, read-out: MIC H. influenzae (49766).
[10] abbreviates: ATCC29213, S. aureus ATCC 29213, read-out: MIC S. aureus (ATCC 29213).
[11] abbreviates: S. aureus 183, read-out: MIC S. aureus (183).
[12] abbreviates: S. aureus 506, read-out: MIC S. aureus (506).
The mark [13] stands for this setting: S. aureus 1708, read-out: MIC S. aureus (1708).
Where [14] appears, read: USA300, S. aureus USA300, read-out: MIC S. aureus (USA300).
The mark [15] stands for this setting: S. pneumoniae 160, read-out: MIC S. pneumonae (160).
Setting [16] is: S. pneumoniae 1509, read-out: MIC S. pneumoniae (1509).
Where [17] appears, read: S. pneumoniae 1533, read-out: MIC S. pneumoniae (1533).
Where [18] appears, read: S. pneumoniae 1537, read-out: MIC S. pneumoniae (1537).
Setting [19] is: S. pneumoniae 49619, read-out: MIC S. pneumoniae (49619).

≈ marks a conversion by molar mass, not a printed value. Like-named read-outs stand apart in the source and are kept apart here. A value given as a limit tells only on which side of the number the result lay.

On to `CC[C@H]1OC(=O)[C@H](C)C(=O)C[C@@H](O[C@@H]2OC(C)CC(N(C)C)C2O)[C@](C)(OC)C[C@@H](C)CN(C(C)=O)[C@H](C)[C@H]2N(CCCCN=[N+]=[N-])C(=O)O[C@]12C` (stereo partly drawn) [FSM-10789], for which the MIC is 8 µg/mL (≈ 10.8 µM) in the assay with EC882 E. coli imp (Escherichia coli); more than 32 µg/mL against BS1725 B. subtilis ermC (setting [3]); more than 32 µg/mL with BS1725 B. subtilis ermC (setting [4]); more than 32 µg/mL with EC107 E. coli ATCC25922 (setting [5]); more than 32 µg/mL in [1] (setting [6]); more than 32 µg/mL in assay [2] (setting [7]). This compound returned an MIC in the assay with EC878 E. coli tolC (Escherichia coli) of 4 µg/mL (≈ 5.41 µM).
`CC[C@H]1OC(=O)[C@H](C)C(=O)C[C@@H](O[C@@H]2OC(C)CC(N(C)C)C2O)[C@](C)(OC)C[C@@H](C)CN(C(C)=O)[C@H](C)[C@H]2N(CCCCn3cc(-c4cccnn4)nn3)C(=O)O[C@]12C` (stereo partly drawn) [FSM-10794]: the MIC against EC882 E. coli imp (Escherichia coli) was 16 µg/mL (≈ 19 µM); in the assay with BS1725 B. subtilis ermC (setting [3]) it was more than 32 µg/mL; with BS1725 B. subtilis ermC (setting [4]), more than 32 µg/mL; in the assay with EC107 E. coli ATCC25922 (setting [5]), more than 32 µg/mL; in [1] (setting [6]) it was more than 32 µg/mL; in assay [2] (setting [7]), more than 32 µg/mL. Also, the MIC in the assay on EC878 E. coli tolC (Escherichia coli) amounted to 8 µg/mL (≈ 9.49 µM).
Take spiramycin [reference compound]: the MIC in the assay with EC882 E. coli imp was 1 µg/mL; in the assay on BS1725 B. subtilis ermC (BS1725 B. subtilis ermC (+ery)), 16 µg/mL; in the assay on BS1725 B. subtilis ermC (BS1725 B. subtilis ermC (−ery)), 2 µg/mL; in the assay with EC107 E. coli ATCC25922 it was more than 32 µg/mL; in [1] it was 2 µg/mL; in assay [2] (SA101 S. aureus ATCC29213), 8 µg/mL. The compound further came in with an MIC in the assay with EC878 E. coli tolC of 16 µg/mL.
For the compound `CC[C@H]1OC(=O)C(C)(F)C(=O)[C@@H](C)[C@@H](O[C@@H]2OC(C)CC(N(C)C)C2O)[C@](C)(OC)C[C@@H](C)CN[C@H](C)[C@H]2N(CCCCn3cc(-c4nc5ccccc5s4)nn3)C(=O)O[C@]12C` (stereo partly drawn) [FSM-20722], the MIC in the assay on EC882 E. coli imp (Escherichia coli) was 0.5 µg/mL (≈ 0.563 µM); with BS1725 B. subtilis ermC (setting [3]) it was more than 32 µg/mL; with EC107 E. coli ATCC25922 (setting [5]), more than 32 µg/mL; in assay [1] (setting [6]), 16 µg/mL (≈ 18 µM); in assay [2] (setting [7]) it was 8 µg/mL (≈ 9.01 µM); against EC878 E. coli tolC (Escherichia coli) it was 1 µg/mL (≈ 1.13 µM).
Turning to `CC[C@H]1OC(=O)C(C)(F)C(=O)[C@H](C)[C@@H](O[C@@H]2OC(C)CC(N(C)C)C2O)[C@](C)(OC/C=C/c2cnc3ccccc3c2)C[C@@H](C)CN[C@H](C)[C@H]2NC(=O)O[C@@]21C` (stereo partly drawn) [FSM-21088], the MIC in the assay on H. influenzae strains (setting [8]) is 8 µg/mL (≈ 10.2 µM); in the assay with H. influenzae strains (setting [9]), more than 32 µg/mL; with S. aureus strains (setting [10]), 16 µg/mL (≈ 20.4 µM); with S. aureus strains (setting [11]), more than 32 µg/mL; in the assay on S. aureus strains (setting [12]), more than 32 µg/mL; in the assay with S. aureus strains (setting [13]), 8 µg/mL (≈ 10.2 µM). The MIC with S. aureus strains (setting [14]) is 16 µg/mL (≈ 20.4 µM); in the assay on K. pneumoniae strains it was more than 32 µg/mL; with A. baumannii strains it was more than 32 µg/mL; in the assay on E. faecalis strains it was 8 µg/mL (≈ 10.2 µM); against E. coli strains, more than 32 µg/mL; in the assay on S. pneumoniae strains (setting [15]), 0.5 µg/mL (≈ 0.637 µM). Further, the MIC in the assay on S. pneumoniae strains (setting [16]) is more than 32 µg/mL; in the assay on S. pneumoniae strains (setting [17]), more than 32 µg/mL; in the assay on S. pneumoniae strains (setting [18]) it was more than 32 µg/mL; in the assay with S. pneumoniae strains (setting [19]) it was 2 µg/mL (≈ 2.55 µM).
For `CC[C@H]1OC(=O)C(C)C(=O)[C@H](C)[C@@H](O[C@@H]2OC(C)CC(N(C)C)C2O)[C@](C)(OC)C[C@@H](C)C(=O)N[C@H](C)[C@H]2N(CCCCn3cc(-c4cccc(N)c4)nn3)C(=O)O[C@]12C` (stereo partly drawn) [FSM-21344], the MIC in the assay on H. influenzae strains (setting [8]) is 8 µg/mL (≈ 9.5 µM); in the assay with H. influenzae strains (setting [9]), 32 µg/mL (≈ 38 µM); in the assay on S. aureus strains (setting [10]), more than 32 µg/mL; in the assay on S. aureus strains (setting [11]) it was more than 32 µg/mL; with S. aureus strains (setting [12]) it was more than 32 µg/mL; with S. aureus strains (setting [13]), more than 32 µg/mL. Further, the MIC is more than 32 µg/mL in the assay on S. aureus strains (setting [14]); 16 µg/mL (≈ 19 µM) with K. pneumoniae strains; more than 32 µg/mL with A. baumannii strains; 16 µg/mL (≈ 19 µM) in the assay on E. faecalis strains; more than 32 µg/mL in the assay on E. coli strains; 8 µg/mL (≈ 9.5 µM) in the assay on S. pneumoniae strains (setting [15]). The MIC was 4 µg/mL (≈ 4.75 µM) in the assay with S. pneumoniae strains (setting [16]), more than 32 µg/mL in the assay on S. pneumoniae strains (setting [17]), more than 32 µg/mL in the assay on S. pneumoniae strains (setting [18]) and 0.5 µg/mL (≈ 0.594 µM) with S. pneumoniae strains (setting [19]).
Regarding `C=CC[C@@H]1[C@H]2N(CCCCn3cc(-c4cccc(N)c4)nn3)C(=O)O[C@]2(C)[C@@H](CC)OC(=O)[C@H](C)C(=O)[C@H](C)[C@@H](O[C@@H]2OC(C)CC(N(C)C)C2O)[C@](C)(OC)C[C@@H](C)CN1C` (stereo partly drawn) [FSM-11094], the MIC was 8 µg/mL (≈ 9.22 µM) with H. influenzae strains (setting [8]); 16 µg/mL (≈ 18.4 µM) in the assay on H. influenzae strains (setting [9]); 8 µg/mL (≈ 9.22 µM) in the assay with S. aureus strains (setting [10]); more than 32 µg/mL in the assay on S. aureus strains (setting [11]); more than 32 µg/mL in the assay on S. aureus strains (setting [12]); 16 µg/mL (≈ 18.4 µM) in the assay on S. aureus strains (setting [13]). Besides, the MIC with S. aureus strains (setting [14]) was 8 µg/mL (≈ 9.22 µM); in the assay with K. pneumoniae strains, 16 µg/mL (≈ 18.4 µM); with A. baumannii strains it was more than 32 µg/mL; against E. faecalis strains, 4 µg/mL (≈ 4.61 µM); against E. coli strains, more than 32 µg/mL; with S. pneumoniae strains (setting [15]), 1 µg/mL (≈ 1.15 µM). In addition, the MIC in the assay on S. pneumoniae strains (setting [16]) was more than 32 µg/mL; in the assay on S. pneumoniae strains (setting [17]), more than 32 µg/mL; in the assay on S. pneumoniae strains (setting [18]), more than 32 µg/mL; with S. pneumoniae strains (setting [19]), 2 µg/mL (≈ 2.3 µM).
